One test has as its target ABL1 (Homo sapiens, UniProt P00519). The test can be described thus: Kinase Profiler, residual kinase activity. It is filed as biochemical. Particulars: read-out: percentage of the remaining kinase activity.
The next test deals with T1, PLK1 (Homo sapiens, UniProt P53350).
T1 construct: purchased Research Biology Corp. (http://www.reactionbiology.com)
Description: Kinase Profiler, residual kinase activity. It is filed as biochemical. Particulars: read-out: percentage of the remaining kinase activity.

For the next test, the target named is CAMK2D (Homo sapiens, UniProt Q13557). Description: Kinase Profiler, residual kinase activity. It counts as biochemical. Particulars: for remaining activity at 0.5 µM: read-out: percentage of the remaining kinase activity. The gist of the method: (§1)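 Outsourced panel screen: 40 protein kinases, residual activity reported per kinase.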
CAMK2D, sequence (Q13557 whole entry): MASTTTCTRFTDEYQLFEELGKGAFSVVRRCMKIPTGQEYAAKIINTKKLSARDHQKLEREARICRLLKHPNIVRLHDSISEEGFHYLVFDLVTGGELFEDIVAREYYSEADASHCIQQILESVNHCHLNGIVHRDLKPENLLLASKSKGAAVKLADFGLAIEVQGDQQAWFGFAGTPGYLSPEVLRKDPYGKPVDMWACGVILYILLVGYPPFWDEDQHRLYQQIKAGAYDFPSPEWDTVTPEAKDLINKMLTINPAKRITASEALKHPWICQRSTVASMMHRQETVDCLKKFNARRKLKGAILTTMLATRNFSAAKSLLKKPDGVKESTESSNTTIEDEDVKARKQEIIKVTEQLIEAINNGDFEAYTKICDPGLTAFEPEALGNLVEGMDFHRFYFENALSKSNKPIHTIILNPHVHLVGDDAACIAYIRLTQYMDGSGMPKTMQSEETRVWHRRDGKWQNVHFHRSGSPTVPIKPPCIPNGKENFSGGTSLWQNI
For a further test, the target named is T2, GSG2 (Homo sapiens, UniProt Q8TF76).
T2 sequence (Q8TF76 1-798): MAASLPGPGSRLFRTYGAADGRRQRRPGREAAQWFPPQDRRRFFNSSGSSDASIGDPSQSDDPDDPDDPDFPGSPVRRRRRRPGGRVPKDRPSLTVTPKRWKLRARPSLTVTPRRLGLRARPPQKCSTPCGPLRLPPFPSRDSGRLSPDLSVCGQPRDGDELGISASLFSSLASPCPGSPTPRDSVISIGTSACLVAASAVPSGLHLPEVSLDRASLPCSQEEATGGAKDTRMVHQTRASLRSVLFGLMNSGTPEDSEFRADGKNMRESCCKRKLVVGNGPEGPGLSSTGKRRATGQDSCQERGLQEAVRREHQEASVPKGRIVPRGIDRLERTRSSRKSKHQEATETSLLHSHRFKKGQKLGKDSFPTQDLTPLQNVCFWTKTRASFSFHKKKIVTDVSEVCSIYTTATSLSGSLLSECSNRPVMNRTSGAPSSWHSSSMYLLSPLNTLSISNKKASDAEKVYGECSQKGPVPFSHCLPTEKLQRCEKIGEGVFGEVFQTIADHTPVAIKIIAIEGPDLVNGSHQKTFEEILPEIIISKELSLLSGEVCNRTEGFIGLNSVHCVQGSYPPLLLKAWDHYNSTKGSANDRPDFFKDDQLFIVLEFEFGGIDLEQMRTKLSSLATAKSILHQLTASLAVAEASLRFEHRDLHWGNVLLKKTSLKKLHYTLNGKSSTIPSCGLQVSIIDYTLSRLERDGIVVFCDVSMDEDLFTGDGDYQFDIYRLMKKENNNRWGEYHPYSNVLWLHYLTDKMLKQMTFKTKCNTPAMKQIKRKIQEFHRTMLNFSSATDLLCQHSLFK
Description: Kinase Profiler, residual kinase activity. It counts as biochemical. The following applies: read-out: percentage of the remaining kinase activity. In short, it runs like this:
as §1

For a further test, the target named is T3, INSR (Homo sapiens, UniProt P06213).
T3 construct: purchased Research Biology Corp. (http://www.reactionbiology.com)
T3 sequence (P06213 28-1382): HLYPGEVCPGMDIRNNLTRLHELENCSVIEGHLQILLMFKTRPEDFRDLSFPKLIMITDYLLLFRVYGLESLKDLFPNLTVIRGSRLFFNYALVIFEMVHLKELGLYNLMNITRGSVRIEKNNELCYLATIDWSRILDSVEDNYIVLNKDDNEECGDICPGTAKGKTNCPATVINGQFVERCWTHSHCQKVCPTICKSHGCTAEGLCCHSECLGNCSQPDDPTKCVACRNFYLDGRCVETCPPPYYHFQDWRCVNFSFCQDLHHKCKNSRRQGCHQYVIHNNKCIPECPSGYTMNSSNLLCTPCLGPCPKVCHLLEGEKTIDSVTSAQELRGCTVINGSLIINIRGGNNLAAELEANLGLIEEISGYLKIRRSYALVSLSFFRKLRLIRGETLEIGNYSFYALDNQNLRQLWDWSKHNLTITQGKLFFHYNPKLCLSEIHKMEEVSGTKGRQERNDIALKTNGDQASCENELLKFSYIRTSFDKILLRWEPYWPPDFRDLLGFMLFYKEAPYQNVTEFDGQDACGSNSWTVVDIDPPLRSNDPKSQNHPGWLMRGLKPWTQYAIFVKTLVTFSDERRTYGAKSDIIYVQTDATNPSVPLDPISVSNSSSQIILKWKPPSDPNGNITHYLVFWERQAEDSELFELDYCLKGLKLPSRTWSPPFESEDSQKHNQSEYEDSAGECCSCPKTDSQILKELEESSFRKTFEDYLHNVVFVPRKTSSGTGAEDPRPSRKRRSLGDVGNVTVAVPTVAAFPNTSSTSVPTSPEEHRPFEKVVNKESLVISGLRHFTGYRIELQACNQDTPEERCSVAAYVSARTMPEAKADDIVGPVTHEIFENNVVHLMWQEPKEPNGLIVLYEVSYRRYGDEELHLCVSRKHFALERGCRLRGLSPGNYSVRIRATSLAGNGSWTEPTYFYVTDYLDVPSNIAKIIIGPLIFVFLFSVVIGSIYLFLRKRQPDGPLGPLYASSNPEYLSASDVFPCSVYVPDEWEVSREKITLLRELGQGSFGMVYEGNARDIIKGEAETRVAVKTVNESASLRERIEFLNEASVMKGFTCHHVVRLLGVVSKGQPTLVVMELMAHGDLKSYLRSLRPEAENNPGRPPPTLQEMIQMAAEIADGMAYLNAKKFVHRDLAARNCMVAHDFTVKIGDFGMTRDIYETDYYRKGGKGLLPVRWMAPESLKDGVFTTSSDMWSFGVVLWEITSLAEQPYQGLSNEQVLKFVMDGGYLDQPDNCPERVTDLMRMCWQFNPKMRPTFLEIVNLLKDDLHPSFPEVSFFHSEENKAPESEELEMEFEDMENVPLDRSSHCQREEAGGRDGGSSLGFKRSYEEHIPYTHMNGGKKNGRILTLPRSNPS
The test can be described thus: Kinase Profiler, residual kinase activity. Particulars: read-out: percentage of the remaining kinase activity. It is filed as biochemical. In short, it runs like this: as §1

Another test deals with KDR (Homo sapiens, UniProt P35968). Description: Kinase Profiler, residual kinase activity. Particulars: read-out: percentage of the remaining kinase activity. It is filed as biochemical. The gist of the method:
as §1

The target in a further test is PAK4 (Homo sapiens, UniProt O96013). The test can be described thus: Kinase Profiler, residual kinase activity. It is filed as biochemical. The following applies: read-out: percentage of the remaining kinase activity. In short, it runs like this:
as §1

For another test, the target named is T4, RPS6KA5 (Homo sapiens, UniProt O75582).
T4 construct: purchased Research Biology Corp. (http://www.reactionbiology.com)
T4 sequence (O75582 whole entry): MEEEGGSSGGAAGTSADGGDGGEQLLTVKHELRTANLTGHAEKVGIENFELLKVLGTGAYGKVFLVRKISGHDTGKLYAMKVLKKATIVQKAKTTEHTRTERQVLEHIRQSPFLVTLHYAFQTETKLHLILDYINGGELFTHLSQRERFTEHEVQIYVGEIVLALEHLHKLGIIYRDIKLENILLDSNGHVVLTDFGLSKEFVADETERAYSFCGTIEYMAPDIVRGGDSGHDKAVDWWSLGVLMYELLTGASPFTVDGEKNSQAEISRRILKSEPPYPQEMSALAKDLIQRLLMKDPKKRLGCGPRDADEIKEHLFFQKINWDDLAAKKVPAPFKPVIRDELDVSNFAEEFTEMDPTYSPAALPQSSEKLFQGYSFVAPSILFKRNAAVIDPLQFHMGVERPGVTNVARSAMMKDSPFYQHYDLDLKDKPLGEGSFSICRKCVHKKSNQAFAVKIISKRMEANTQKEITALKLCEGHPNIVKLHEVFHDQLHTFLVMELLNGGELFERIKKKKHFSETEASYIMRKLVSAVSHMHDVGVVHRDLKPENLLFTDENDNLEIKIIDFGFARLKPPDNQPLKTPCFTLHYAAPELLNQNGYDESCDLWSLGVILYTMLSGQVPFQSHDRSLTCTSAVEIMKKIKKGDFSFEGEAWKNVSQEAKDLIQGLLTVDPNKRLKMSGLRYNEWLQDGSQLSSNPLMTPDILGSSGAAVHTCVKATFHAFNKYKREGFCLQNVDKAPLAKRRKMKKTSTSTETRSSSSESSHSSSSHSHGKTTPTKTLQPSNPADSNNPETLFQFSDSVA
The test can be described thus: Kinase Profiler, residual kinase activity. It counts as biochemical. The following applies: read-out: percentage of the remaining kinase activity. The gist of the method: as §1

In test [1] the test system is 40 types of protein kinases. The test can be described thus: Selectivity over the panel of 40 protein kinases. Particulars: 500 nM; inhibited = residual kinase activity less than or equal to 50%. It counts as biochemical. From the text:
Kinase Profiler services provided by […]. (http://www.reactionbiology.com) were used to analyze the data of the 9 type-S protein kinase inhibitors against the 40 types of protein kinases.

In test [2] the test system is gastric cancer cell line MKN-45. Description: MTT cell survival test on gastric cancer cells. It is filed as cell-based. The following applies: Homo sapiens; MKN-45, MTT, 24 hours, serum-free media; read-out: IC50 value for inhibiting gastric cancer cell line MKN-45. As for the experimental part: Gastric cancer cell line MKN-45 was incubated on a 96-well plate (about 1×10^4 cells/well). After the cells adhered, the 96-well plate was replaced with serum-free culture media, and different concentrations (from 40 to 0.039 μM) of drugs were added. After incubating at 37° C. for 24 hours, PBS was used for washing three times, and MTT culture media was added to react with cells. Violet crystals appeared after two hours. Then, DMSO (50 μl) was added to terminate the reaction. A light-absorbing micro-volume spectrophotometer (ELISA reader) was used, and an absorption value of 570 nm was obtained. A blank value was deducted from each of the obtained absorbance values, and then the difference was divided by the value of the control group to calculate a percentage, i.e., a cell survival rate. The experiment was repeated three times to obtain an average value and a standard deviation.
(Tetrazolium assays rely on reduction of a dye to a coloured formazan, in cell work by metabolically active cells.)

Read-outs that look alike come from different tables or passages of the source. Where only a bound is given, the exact number is not on record here.

T1 sequence (P53350 whole entry): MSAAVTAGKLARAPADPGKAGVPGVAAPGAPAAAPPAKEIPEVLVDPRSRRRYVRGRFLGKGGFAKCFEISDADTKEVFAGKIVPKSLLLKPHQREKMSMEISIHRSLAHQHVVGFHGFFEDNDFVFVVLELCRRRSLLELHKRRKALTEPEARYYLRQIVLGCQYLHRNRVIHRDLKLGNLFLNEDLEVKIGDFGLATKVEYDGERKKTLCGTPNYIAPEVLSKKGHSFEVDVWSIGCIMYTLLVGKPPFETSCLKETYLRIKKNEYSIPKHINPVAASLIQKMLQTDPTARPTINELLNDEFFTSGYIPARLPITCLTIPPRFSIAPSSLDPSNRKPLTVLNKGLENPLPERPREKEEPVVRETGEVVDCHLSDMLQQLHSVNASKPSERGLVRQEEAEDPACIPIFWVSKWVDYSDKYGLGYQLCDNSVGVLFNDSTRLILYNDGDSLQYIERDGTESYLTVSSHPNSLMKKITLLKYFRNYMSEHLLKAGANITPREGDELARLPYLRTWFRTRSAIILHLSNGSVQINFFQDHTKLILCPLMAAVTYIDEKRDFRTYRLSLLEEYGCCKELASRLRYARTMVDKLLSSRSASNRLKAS
PAK4, sequence (O96013 whole entry): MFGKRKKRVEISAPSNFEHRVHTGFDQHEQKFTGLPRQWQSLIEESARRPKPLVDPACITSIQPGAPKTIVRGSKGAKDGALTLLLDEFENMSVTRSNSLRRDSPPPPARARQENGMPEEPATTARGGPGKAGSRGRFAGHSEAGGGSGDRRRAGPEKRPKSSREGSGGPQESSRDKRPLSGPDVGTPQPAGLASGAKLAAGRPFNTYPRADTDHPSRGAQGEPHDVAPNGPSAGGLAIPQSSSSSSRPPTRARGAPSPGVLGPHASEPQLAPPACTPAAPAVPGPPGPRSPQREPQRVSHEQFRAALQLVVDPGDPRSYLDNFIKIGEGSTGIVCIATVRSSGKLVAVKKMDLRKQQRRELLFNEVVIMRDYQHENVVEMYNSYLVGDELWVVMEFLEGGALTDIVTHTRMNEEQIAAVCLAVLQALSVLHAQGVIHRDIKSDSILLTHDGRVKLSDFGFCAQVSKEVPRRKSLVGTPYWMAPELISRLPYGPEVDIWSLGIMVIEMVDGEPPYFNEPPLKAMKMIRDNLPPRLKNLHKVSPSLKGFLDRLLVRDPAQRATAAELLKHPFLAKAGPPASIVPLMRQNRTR
ABL1, sequence (P00519 whole entry): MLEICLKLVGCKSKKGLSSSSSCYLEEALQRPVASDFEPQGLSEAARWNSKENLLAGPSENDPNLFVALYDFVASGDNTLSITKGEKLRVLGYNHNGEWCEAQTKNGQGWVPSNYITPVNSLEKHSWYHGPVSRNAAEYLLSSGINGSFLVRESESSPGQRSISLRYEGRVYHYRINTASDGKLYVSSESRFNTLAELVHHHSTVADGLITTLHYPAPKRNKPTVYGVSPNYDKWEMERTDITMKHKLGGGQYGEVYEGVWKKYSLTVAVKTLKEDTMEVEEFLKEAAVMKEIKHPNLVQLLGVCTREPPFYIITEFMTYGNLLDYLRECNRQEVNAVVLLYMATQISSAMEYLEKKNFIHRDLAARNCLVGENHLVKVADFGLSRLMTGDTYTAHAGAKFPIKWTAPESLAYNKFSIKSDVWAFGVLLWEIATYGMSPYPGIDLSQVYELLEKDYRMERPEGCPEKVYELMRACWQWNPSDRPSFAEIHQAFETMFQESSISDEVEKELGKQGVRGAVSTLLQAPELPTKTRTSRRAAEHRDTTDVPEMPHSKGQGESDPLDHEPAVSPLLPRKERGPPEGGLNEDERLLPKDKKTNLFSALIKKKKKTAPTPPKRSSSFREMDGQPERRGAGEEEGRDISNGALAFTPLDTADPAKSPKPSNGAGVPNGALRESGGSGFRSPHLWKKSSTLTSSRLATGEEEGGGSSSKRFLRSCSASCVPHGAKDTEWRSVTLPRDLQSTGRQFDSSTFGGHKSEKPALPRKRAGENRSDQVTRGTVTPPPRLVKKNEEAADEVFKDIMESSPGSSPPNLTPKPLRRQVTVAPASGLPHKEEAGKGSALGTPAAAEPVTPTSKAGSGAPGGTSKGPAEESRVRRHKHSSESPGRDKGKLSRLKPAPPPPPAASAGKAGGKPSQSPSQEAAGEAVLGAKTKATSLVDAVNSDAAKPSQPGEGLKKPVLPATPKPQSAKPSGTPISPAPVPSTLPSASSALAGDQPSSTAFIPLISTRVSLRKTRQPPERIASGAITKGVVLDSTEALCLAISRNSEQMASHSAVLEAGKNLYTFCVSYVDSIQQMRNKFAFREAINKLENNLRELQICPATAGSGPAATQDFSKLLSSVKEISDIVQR

`COC1C(N(C)C(=O)C(N)Cc2c[nH]cn2)CC2OC1(C)n1c3ccccc3c3c4c(c5c6ccccc6n2c5c31)C(=O)NC4` (stereo not shown) [Compound 1]: the remaining activity (as a rule, the signal under treatment as a percentage of the control signal) at 0.5 µM came out at 77.6% at ABL1 (ABL1, inhibitor at 500 nM); 93.8% on PLK1 (PLK1, inhibitor at 500 nM); 2% at CAMK2D (CAMK2D, inhibitor at 500 nM); 69.9% on GSG2 (GSG2, inhibitor at 500 nM); 23.1% at INSR (INSR, inhibitor at 500 nM); 6.5% at KDR (KDR, inhibitor at 500 nM). The remaining activity at 0.5 µM stood at 40.2% at PAK4 (PAK4, inhibitor at 500 nM) and 1.7% at RPS6KA5 (RPS6KA5, inhibitor at 500 nM).

Consider `COC1C(N(C)C(=O)C(N)Cc2cn(C(=O)OC(C)(C)C)c3ccccc23)CC2OC1(C)n1c3ccccc3c3c4c(c5c6ccccc6n2c5c31)C(=O)NC4` (stereo not shown) [Compound 2], for which the remaining activity at 0.5 µM on ABL1 (ABL1, inhibitor at 500 nM) is 109%; at PLK1 (PLK1, inhibitor at 500 nM), 97.9%; at CAMK2D (CAMK2D, inhibitor at 500 nM), 16.1%; on GSG2 (GSG2, inhibitor at 500 nM), 110%; on INSR (INSR, inhibitor at 500 nM) it was 97.9%; at KDR (KDR, inhibitor at 500 nM), 102%. Further, the remaining activity at 0.5 µM turned out to be 110% at PAK4 (PAK4, inhibitor at 500 nM) and 61.4% at RPS6KA5 (RPS6KA5, inhibitor at 500 nM). Further, the IC50 (in general, the concentration needed to halve the response being measured) against CAMK2D (CAMK2D, inferred from test at 500 nM (FIG. 1)) is below 0.5 µM. Also, the “percentage of the 40 types of protein kinases inhibited” value in [1] was determined as 2.5%.

On to `COC1C(N(C)C(=O)C(N)Cc2ccc(OC(C)(C)C)cc2)CC2OC1(C)n1c3ccccc3c3c4c(c5c6ccccc6n2c5c31)C(=O)NC4` (stereo not shown) [Compound 4], for which the remaining activity at 0.5 µM came out at 107% on ABL1 (ABL1, inhibitor at 500 nM); 104% on PLK1 (PLK1, inhibitor at 500 nM); 6.7% at CAMK2D (CAMK2D, inhibitor at 500 nM); 102% at GSG2 (GSG2, inhibitor at 500 nM); 84.8% at INSR (INSR, inhibitor at 500 nM); 50.8% at KDR (KDR, inhibitor at 500 nM). In addition, the remaining activity at 0.5 µM on PAK4 (PAK4, inhibitor at 500 nM) came to 95.2%; on RPS6KA5 (RPS6KA5, inhibitor at 500 nM), 1.6%. In addition, the concentration for half-maximal inhibition (IC50) in test [2] was determined as 1.6 µM. Moreover, in [1], the “number of types of protein kinases inhibited out of 40 tested” value was determined as 11. Further, in test [1], the “percentage of the 40 types of protein kinases inhibited” value worked out at 27.5%.

For the compound `COC1C(N(C)C(=O)C(N)Cc2ccc(O)cc2)CC2OC1(C)n1c3ccccc3c3c4c(c5c6ccccc6n2c5c31)C(=O)NC4` (stereo not shown) [Compound 5], the remaining activity at 0.5 µM on ABL1 (ABL1, inhibitor at 500 nM) is 104%; at PLK1 (PLK1, inhibitor at 500 nM), 99.2%; at CAMK2D (CAMK2D, inhibitor at 500 nM) it was 10.1%; at GSG2 (GSG2, inhibitor at 500 nM), 89.5%; on INSR (INSR, inhibitor at 500 nM), 69.1%; on KDR (KDR, inhibitor at 500 nM) it was 16.3%. The remaining activity at 0.5 µM on PAK4 (PAK4, inhibitor at 500 nM) turned out to be 53.3%; on RPS6KA5 (RPS6KA5, inhibitor at 500 nM), 2.4%.

Regarding `COC1C(N(C)C(=O)C(N)CCC(=O)OC(C)(C)C)CC2OC1(C)n1c3ccccc3c3c4c(c5c6ccccc6n2c5c31)C(=O)NC4` (stereo not shown) [Compound 6], the remaining activity at 0.5 µM was 97.6% on ABL1 (ABL1, inhibitor at 500 nM); 104% at PLK1 (PLK1, inhibitor at 500 nM); 12.7% at CAMK2D (CAMK2D, inhibitor at 500 nM); 88% on GSG2 (GSG2, inhibitor at 500 nM); 72.3% at INSR (INSR, inhibitor at 500 nM); 42.4% on KDR (KDR, inhibitor at 500 nM). In addition, the remaining activity at 0.5 µM on PAK4 (PAK4, inhibitor at 500 nM) came to 80.8%; on RPS6KA5 (RPS6KA5, inhibitor at 500 nM), 3.3%.

Consider `COC1C(N(C)C(=O)C(N)CCC(=O)O)CC2OC1(C)n1c3ccccc3c3c4c(c5c6ccccc6n2c5c31)C(=O)NC4` (stereo not shown) [Compound 7], for which the remaining activity at 0.5 µM at ABL1 (ABL1, inhibitor at 500 nM) came out at 68%; on PLK1 (PLK1, inhibitor at 500 nM), 80.9%; at CAMK2D (CAMK2D, inhibitor at 500 nM), 2.3%; on GSG2 (GSG2, inhibitor at 500 nM), 69.9%; on INSR (INSR, inhibitor at 500 nM) it was 32.8%; on KDR (KDR, inhibitor at 500 nM), 5.4%. The remaining activity at 0.5 µM on PAK4 (PAK4, inhibitor at 500 nM) stood at 38.4%; on RPS6KA5 (RPS6KA5, inhibitor at 500 nM) it was 1.8%.

`COC1C(N(C)CCOc2cccc([N+](=O)[O-])c2)CC2OC1(C)n1c3ccccc3c3c4c(c5c6ccccc6n2c5c31)C(=O)NC4` (stereo not shown) [Compound 8]: the remaining activity at 0.5 µM worked out at 92.5% on ABL1; 97.7% on PLK1; 0.3% at CAMK2D; 89.8% on GSG2; 83.1% at INSR; 43.3% at KDR. Further, the remaining activity at 0.5 µM worked out at 99.9% at PAK4 and 7.4% on RPS6KA5.

Turning to `COC1C(N(C)Cc2ccc(-c3ccccc3)cc2)CC2OC1(C)n1c3ccccc3c3c4c(c5c6ccccc6n2c5c31)C(=O)NC4` (stereo not shown) [Compound 9], the remaining activity at 0.5 µM turned out to be 84.9% at ABL1 (ABL1, inhibitor at 500 nM); 95.9% at PLK1 (PLK1, inhibitor at 500 nM); 1.1% at CAMK2D (CAMK2D, inhibitor at 500 nM); 87.8% at GSG2 (GSG2, inhibitor at 500 nM); 79.1% on INSR (INSR, inhibitor at 500 nM); 43.6% on KDR (KDR, inhibitor at 500 nM). Besides, the remaining activity at 0.5 µM is 91.8% at PAK4 (PAK4, inhibitor at 500 nM) and 5.2% at RPS6KA5 (RPS6KA5, inhibitor at 500 nM).

As to `CN[C@@H]1C[C@H]2O[C@@](C)([C@@H]1OC)n1c3ccccc3c3c4c(c5c6ccccc6n2c5c31)C(=O)NC4` [STU, staurosporine, reference compound], the remaining activity at 0.5 µM on CAMK2D is 0.4%; at GSG2 (GSG2, inhibitor at 500 nM), 9%; at INSR it was 16.2%; at RPS6KA5 it was 1.1%.

The values above are taken from patent publication US9738660B2, “Selective inhibitors for protein kinases and pharmaceutical composition and use thereof” (National Chiao Tung University, priority 2014, dated 2017).
